From EP3722296B1, “DIHYDRONAPHTHYRIDINES AND RELATED COMPOUNDS USEFUL AS KINASE INHIBITORS FOR THE TREATMENT OF PROLIFERATIVE DISEASES” (Deciphera Pharmaceuticals, LLC, priority 2012, dated 2013) come the findings set out here.

Assay [1] concerns the target T1, c-KIT V654A kinase (Homo sapiens, UniProt P10721, V654A).
T1 construct: residues T544-V976 with N-terminal GST fusion; purchased deCODE Biostructures
The assay is described as follows: c-KIT V654A Kinase Assay. The format is biochemical. The conditions noted are these: enzymatic assay, ATP 200 µM. The method, then: In this assay, the oxidation of NADH (measured by decrease in absorbance at 340 nm) was continuously monitored spectrophotometrically. […] The inhibition reaction was started by mixing serial diluted test compound with the above reaction mixture. The absorption at 340 nm was monitored continuously for 6 hours at 30 °C on Synergy 2 plate reader (BioTech).
(§1) The protein construct was prepared by deCODE Biostructures using procedures known in the art. The construct contains residues T544-V976 of cKit, an N-terminal tag, a GST-fusion sequence and a TEV cleavage site. This construct is identical to Seq ID no.

Assay [2] deals with T2, c-KIT D816H kinase (Homo sapiens, UniProt P10721, D816H).
T2 construct: The construct contains residues T544-V976 of cKit; GST (N); TEV cleavage site (internal); purchased deCODE Biostructures
T2 sequence (P10721 544-976 D816H): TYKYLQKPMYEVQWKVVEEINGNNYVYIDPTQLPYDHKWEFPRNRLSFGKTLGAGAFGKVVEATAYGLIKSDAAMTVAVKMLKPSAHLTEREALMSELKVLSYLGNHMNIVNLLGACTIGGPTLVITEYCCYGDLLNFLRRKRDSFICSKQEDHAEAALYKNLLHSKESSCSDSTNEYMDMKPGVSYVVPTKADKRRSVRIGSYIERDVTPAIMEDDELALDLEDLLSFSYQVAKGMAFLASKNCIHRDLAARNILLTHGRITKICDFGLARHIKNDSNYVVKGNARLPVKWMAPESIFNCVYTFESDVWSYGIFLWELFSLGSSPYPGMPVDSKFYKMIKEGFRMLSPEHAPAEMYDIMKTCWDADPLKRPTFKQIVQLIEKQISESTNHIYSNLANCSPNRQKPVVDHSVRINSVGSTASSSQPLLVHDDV
The assay is described as follows: c-KIT D816H Kinase Assay. The format is biochemical. The conditions noted are these: enzymatic assay, ATP 200 µM. The method, then:
(§2) In this assay, the oxidation of NADH (measured by decrease in absorbance at 340 nm) was continuously monitored spectrophotometrically. […] The inhibition reaction was started by mixing serial diluted test compound with the above reaction mixture. The absorption at 340 nm was monitored continuously for 6 hours at 30 °C on Synergy 2 plate reader (BioTech). […] The protein construct was prepared by deCODE Biostructures using procedures known in the art. The construct contains […] of cKit, an N-terminal tag, a GST-fusion sequence and a TEV cleavage site. This construct is identical to Seq ID no.

Assay [3] addresses T3, c-KIT D816V kinase (Homo sapiens, UniProt P10721, D816V).
T3 construct: residues T544-V976 with N-terminal GST fusion; purchased deCODE Biostructures
The assay is described as follows: c-KIT D816V kinase Assay. In kind it is biochemical. The settings on record: enzymatic assay, ATP 200 uM. Here is the method:
In this assay, the oxidation of NADH (measured by decrease in absorbance at 340 nm) was continuously monitored spectrophotometrically. […] The inhibition reaction was started by mixing serial diluted test compound with the above reaction mixture. The absorption at 340 nm was monitored continuously for 5 hours at 30 °C on Synergy 2 plate reader (BioTech).
as §1

For assay [4], the target named is T4, c-KIT T670I kinase (Homo sapiens, UniProt P10721, T670I).
T4 construct: The construct contains residues T544-V976 of cKit; GST (N); TEV cleavage site (internal); purchased deCODE Biostructures
T4 sequence (P10721 544-976 T670I): as the sequence (P10721 544-976 D816H) above, with T127I, H273D counted along it
The assay is described as follows: c-KIT T670I kinase assay. The format is biochemical. The conditions noted are these: enzymatic assay. Here is the method:
as §2, with “5” for “6”, “no. 1 except for the T670I mutation. [formula] [formula]” for “no.”

The subject of assay [5] is GIST T1 cells. The assay is described as follows: GIST T1 Cell Proliferation Assay. The format is cell-based. The conditions noted are these: Homo sapiens, GISTT1, 72 h, 68 hours + 4 hours resazurin. Here is the method:
GIST48, GIST430, and GIST882 cells were obtained from J. Fletcher (Brigham and Women's Hospital, Boston, MA). GIST T1 cells were obtained from B. Rubin (Cleveland Clinic, Cleveland, OH) and Professor Takahiro Taguchi (Kochi Medical School, Nankoku, Kochi, Japan). Briefly, GIST48 and GIST 882 cells were grown in RPMI 1640 medium supplemented with 15% characterized fetal bovine serum (Invitrogen, Carlsbad, CA), 1 unit/mL penicillin G, 1 µg/ml streptomycin, and 0.29 mg/mL L-glutamine at 37 °C, 5% CO2, and 95% humidity. GIST430 cells were grown in Ham's F10 medium supplemented with 15% characterized fetal bovine serum (Invitrogen, Carlsbad, CA), 30 mg/L bovine pituitary extract (BD Biosciences, San Jose, CA), 0.5% Mito+ serum extender (BD Biosciences, San Jose, CA), 1 unit/mL penicillin G, 1 µg/ml streptomycin, and 0.29 mg/mL L-glutamine at 37 °C, 5%CO2, 95% humidity. GIST T1 cells were grown in DMEM medium supplemented with 10% characterized fetal bovine serum (Invitrogen, Carlsbad, CA), 1 unit/mL penicillin G, 1 µg/ml streptomycin, and 0.29 mg/mL L-glutamine at 37 °C, 5% CO2, and 95% humidity.
A serial dilution of test compound was dispensed into a 384-well black clear bottom plate (Corning, Corning, NY). One thousand two-hundred fifty cells were added per well in 50 µL complete growth medium. Plates were incubated for 68 hours at 37 °C, 5% CO2, 95% humidity. At the end of the incubation period 10 µL of a 440 µM solution of resazurin (Sigma, St. Louis, MO) in PBS was added to each well and incubated for an additional 4 hours at 37 °C, 5% CO2, 95% humidity. Plates were read on a Synergy2 reader (Biotek, Winooski, VT) using an excitation of 540 nm and an emission of 600 nm.
A general note: Resazurin is reduced to fluorescent resorufin, in cell work by metabolically active cells.

Assay [6] deals with c-KIT kinase (Homo sapiens, UniProt P10721). The assay is described as follows: c-KIT kinase Assay. In kind it is biochemical. More on the design: cKIT residues T544-V976; GST (N); TEV cleavage site (internal); purchased deCODE Biostructures. The conditions noted are these: enzymatic assay, ATP 200 µM; read-out: KIT (wt) IC50. The method, then:
In this assay, the oxidation of NADH (measured by decrease in absorbance at 340 nm) was continuously monitored spectrophotometrically. […] The absorption at 340 nm was monitored continuously for 2 hours at 30 °C on Synergy 2 (BioTeK). The reaction rate was calculated using the 0 to 1 h time frame. Percent inhibition was obtained by comparison of reaction rate with that of a control (i.e. with no test compound). IC50 values were calculated from a series of percent inhibition values determined at a range of inhibitor concentrations using software routines as implemented in the GraphPad Prism software package. The protein construct was prepared by deCODE Biostructures using procedures known in the art. The construct contains […] of cKit, an N-terminal tag, a GST-fusion sequence and a TEV cleavage site. [formula]

The structures appear in SMILES notation. Where only a bound is given, the exact number is not on record here.

T3 sequence (P10721 544-976 D816V): as the sequence (P10721 544-976 D816H) above, with H273V counted along it
T1 sequence (P10721 544-976 V654A): as the sequence (P10721 544-976 D816H) above, with V111A, H273D counted along it
Sequence of c-KIT kinase (P10721 544-976): as the sequence (P10721 544-976 D816H) above, with H273D counted along it

For `CCn1c(=O)c(-c2cc(NC(=O)Nc3ccc(F)c(CN4CCN(C)CC4)c3)c(F)cc2C)cc2cnc(N)cc21` [Example 93, 1-(5-(7-amino-1-ethyl-2-oxo-1,2-dihydro-1,6-naphthyridin-3-yl)-2-fluoro-4-methylphenyl)-3-(4-fluoro-3-((4-methylpiperazin-1-yl)methyl)phenyl)urea], the IC50 lay within 100 to 1000 nM in assay [1]; 10 to 100 nM in assay [2]; 100 to 1000 nM in assay [3]; 10 to 100 nM in assay [4]; 10 to 100 nM in assay [5]; 10 to 100 nM in assay [6].

Consider `CCn1c(=O)c(-c2cc(NC(=O)Nc3ccc(F)c(CN4CCOCC4)c3)c(F)cc2Cl)cc2cnc(NC)cc21` [Example 95, 1-(4-chloro-5-(1-ethyl-7-(methylamino)-2-oxo-1,2-dihydro-1,6-naphthyridin-3-yl)-2-fluorophenyl)-3-(4-fluoro-3-(morpholinomethyl)phenyl)urea], for which the IC50 in assay [3] was 100 to 1000 nM; in assay [4], 10 to 100 nM; in assay [5] it was under 10 nM; in assay [6], under 10 nM.

For the compound `CCn1c(=O)c(-c2cc(NC(=O)Nc3ccccc3)c(F)cc2Cl)cc2cnc(NC(=O)N3CC[C@H](N(C)C)C3)cc21` [Example 96, (S)-N-(3-(2-chloro-4-fluoro-5-(3-phenylureido)phenyl)-1-ethyl-2-oxo-1,2-dihydro-1,6-naphthyridin-7-yl)-3-(dimethylamino)pyrrolidine-1-carboxamide], the IC50 in assay [1] is 10 to 100 nM; in assay [2] it was 10 to 100 nM; in assay [3], 10 to 100 nM; in assay [4] it was 10 to 100 nM; in assay [5], under 10 nM; in assay [6] it was under 10 nM.

For the compound `CC(C)n1c(=O)c(-c2cc(NC(=O)Nc3cccc(F)c3)c(F)cc2Cl)cc2cnc(NC(=O)N(C)C)cc21` [Example 98, 3-(3-(2-chloro-4-fluoro-5-(3-(3-fluorophenyl)ureido)phenyl)-1-isopropyl-2-oxo-1,2-dihydro-1,6-naphthyridin-7-yl)-1,1-dimethylurea], the IC50 was 10 to 100 nM in assay [1]; 10 to 100 nM in assay [2]; under 10 nM in assay [3]; 10 to 100 nM in assay [4]; under 10 nM in assay [5]; 10 to 100 nM in assay [6].

As to `CC(=O)Nc1cc2c(cn1)cc(-c1cc(NC(=O)Nc3cccc(F)c3)c(F)cc1Cl)c(=O)n2C(C)C` [Example 99, N-(3-(2-chloro-4-fluoro-5-(3-(3-fluorophenyl)ureido)phenyl)-1-isopropyl-2-oxo-1,2-dihydro-1,6-naphthyridin-7-yl)acetamide], in assay [5], the IC50 was under 10 nM.

`CCn1c(=O)c(-c2cc(NC(=O)Nc3ccc(F)c(CN4CCN(C)CC4)c3)c(F)cc2C)cc2cnc(NC=O)cc21` [Example 100, N-(1-ethyl-3-(4-fluoro-5-(3-(4-fluoro-3-((4-methylpiperazin-1-yl)methyl)phenyl)ureido)-2-methylphenyl)-2-oxo-1,2-dihydro-1,6-naphthyridin-7-yl)formamide]: the IC50 in assay [1] was in the range of 100 to 1000 nM; in assay [2], 100 to 1000 nM; in assay [3], 100 to 1000 nM; in assay [4], 100 to 1000 nM; in assay [5], 10 to 100 nM; in assay [6] it was 10 to 100 nM.

Regarding `CC(C)n1c(=O)c(-c2cc(NC(=O)Nc3ccccc3)c(F)cc2Cl)cc2cnc(NC(=O)N(C)C)cc21` [Example 103, 3-(3-(2-chloro-4-fluoro-5-(3-phenylureido)phenyl)-1-isopropyl-2-oxo-1,2-dihydro-1,6-naphthyridin-7-yl)-1,1-dimethylurea], the IC50 was 10 to 100 nM in assay [1]; 10 to 100 nM in assay [2]; under 10 nM in assay [3]; 10 to 100 nM in assay [4]; 10 to 100 nM in assay [5]; 10 to 100 nM in assay [6].

As to `CCn1c(=O)c(-c2cc(NC(=O)Nc3csc4ccccc34)c(F)cc2C)cc2cnc(NC(=O)N(C)C)cc21` [Example 104, 3-(3-(5-(3-(benzo[b]thiophen-3-yl)ureido)-4-fluoro-2-methylphenyl)-1-ethyl-2-oxo-1,2-dihydro-1,6-naphthyridin-7-yl)-1,1-dimethylurea], the IC50 is 100 to 1000 nM in assay [1]; 10 to 100 nM in assay [2]; 10 to 100 nM in assay [3]; 10 to 100 nM in assay [4]; 10 to 100 nM in assay [5]; 10 to 100 nM in assay [6].

`CCn1c(=O)c(-c2cc(NC(=O)Nc3ccccc3)c(F)cc2Br)cc2cnc(NC(=O)N(C)C)cc21` [Example 105, 3-(3-(2-bromo-4-fluoro-5-(3-phenylureido)phenyl)-1-ethyl-2-oxo-1,2-dihydro-1,6-naphthyridin-7-yl)-1,1-dimethylurea]: the IC50 in assay [1] is 10 to 100 nM; in assay [2] it was 10 to 100 nM; in assay [3] it was 10 to 100 nM; in assay [4], 10 to 100 nM; in assay [5] it was under 10 nM; in assay [6] it was 10 to 100 nM.

Consider `CCn1c(=O)c(-c2cc(NC(=O)Nc3cccc(F)c3)c(F)cc2C)cc2cnc(NC(=O)N(C)C)cc21` [Example 106, 3-(1-ethyl-3-(4-fluoro-5-(3-(3-fluorophenyl)ureido)-2-methylphenyl)-2-oxo-1,2-dihydro-1,6-naphthyridin-7-yl)-1,1-dimethylurea], for which the IC50 is 10 to 100 nM in assay [1]; under 10 nM in assay [2]; 10 to 100 nM in assay [3]; 10 to 100 nM in assay [4]; under 10 nM in assay [5]; 10 to 100 nM in assay [6].

On to `CCn1c(=O)c(-c2cc(NC(=O)Nc3ccc(F)c(CN4CCOCC4)c3)c(F)cc2Cl)cc2cnc(NC=O)cc21` [Example 107, N-(3-(2-chloro-4-fluoro-5-(3-(4-fluoro-3-(morpholinomethyl)phenyl)ureido)phenyl)-1-ethyl-2-oxo-1,2-dihydro-1,6-naphthyridin-7-yl)formamide], for which the IC50 in assay [5] lay within 10 to 100 nM.

A word on the IC50: it is the concentration that inhibits the measured activity by half.
